Measurements published in BindingDB's records for doi:10.1158/1535-7163.MCT-06-0397 (Loma Linda University, 2007).

Biological target: Serine/threonine-protein kinase pim-1 (Homo sapiens, UniProt P11309)
Assay: Solid-Phase ELISA Kinase Assay
Settings: pH 7; 30 °C
Description: The 96-well flat-bottomed plates were coated with recombinant GST-BAD. After the plates were blocked, the reaction buffer containing test compound and recombinant GST-PIM1 kinase were added to each well. Phosphorylated GST-BAD was detected by an ELISA reaction. The level of phosphorylated GST-BAD present was proportional to the absorbance at 450 nm. Curve fitting and enzyme analyses were done using GraphPad Prism version 4.00 (GraphPad Software, San Diego, CA).

Serine/threonine-protein kinase pim-1, sequence (P11309 whole entry): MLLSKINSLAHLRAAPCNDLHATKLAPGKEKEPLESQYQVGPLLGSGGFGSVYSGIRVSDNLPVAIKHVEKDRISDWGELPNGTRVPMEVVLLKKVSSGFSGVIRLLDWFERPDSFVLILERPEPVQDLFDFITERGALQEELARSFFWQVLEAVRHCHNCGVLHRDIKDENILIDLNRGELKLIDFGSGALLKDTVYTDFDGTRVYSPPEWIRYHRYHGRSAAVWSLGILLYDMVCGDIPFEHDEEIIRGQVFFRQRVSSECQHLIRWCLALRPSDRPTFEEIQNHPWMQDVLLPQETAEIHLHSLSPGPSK

| IC50 | Compound |
| --- | --- |
| 22 µM | O=c1cc(-c2ccc(O)cc2)oc2c(O)c(O)ccc12 |
| 4.6 µM | O=c1c(O)c(-c2ccccc2)oc2cc(O)ccc12 [3,7-dihydroxy-2-phenyl-4H-chromen-4-one] |
| 0.85 µM | O=c1c(O)c(-c2ccc(O)c(O)c2)oc2cc(O)ccc12 [2-(3,4-dihydroxyphenyl)-3,7-dihydroxy-chromen-4-one] |
| 12.5 µM | CC(C)=CCc1c(O)cc(O)c2c1O[C@H](c1ccccc1)CC2=O [(2S)-5,7-dihydroxy-8-(3-methylbut-2-en-1-yl)-2-phenyl-3,4-dihydro-2H-1-benzopyran-4-one] |
| 7.8 µM | O=c1cc(-c2cc(O)c(O)c(O)c2)oc2cc(O)ccc12 [7-hydroxy-2-(3,4,5-trihydroxyphenyl)-4H-chromen-4-one] |
| 1.3 µM | O=c1c(O)c(-c2ccc(O)cc2)oc2cc(O)cc(O)c12 |
| 4.52 µM | O=c1cc(-c2cccc(O)c2)oc2cc(O)ccc12 [7-hydroxy-2-(3-hydroxyphenyl)-4H-chromen-4-one] |
| 107 µM | O=C1C[C@@H](c2ccccc2)Oc2cc(O)cc(O)c21 |
| 60.2 µM | O=C1C[C@H](c2ccccc2)Oc2cc(O)cc(O)c21 [(2R)-5,7-dihydroxy-2-phenyl-3,4-dihydro-2H-1-benzopyran-4-one] |
| 2.7 µM | O=c1c(O)c(-c2ccc(O)cc2O)oc2cc(O)cc(O)c12 [2-(2,4-dihydroxyphenyl)-3,5,7-trihydroxychromen-4-one] |
| 14 µM | O=c1cc(-c2ccccc2)oc2cc(O)ccc12 [7-Hydroxy-flavone, 5a] |
| 8.3 µM | O=c1c(O)c(-c2ccc(O)cc2O)oc2ccc(O)cc12 [2-(2,4-dihydroxyphenyl)-3,6-dihydroxy-4H-chromen-4-one] |
| 15 µM | O=c1cc(-c2ccccc2)oc2cc(O)cc(O)c12 [5,7-dihydroxy-2-phenyl-4H-chromen-4-one] |
| 0.98 µM | O=c1c(O)c(-c2ccc(O)cc2)oc2cc(O)ccc12 [3,7-dihydroxy-2-(4-hydroxyphenyl)-4H-chromen-4-one] |

| Compound | IC50 |
| --- | --- |
| O=c1cc(-c2ccc(O)cc2)oc2cc(O)cc(O)c12 [Naringenin, 18] | 0.94 µM |
| O=c1cc(-c2ccc(O)c(O)c2)oc2cc(O)cc(O)c12 [2-(3,4-dihydroxyphenyl)-5,7-dihydroxy-4H-chromen-4-one] | 1.6 µM |
| O=c1c(O)c(-c2ccc(O)c(O)c2)oc2c(O)c(O)cc(O)c12 | 0.43 µM |
| O=c1c(O)c(-c2cc(O)c(O)c(O)c2)oc2cc(O)cc(O)c12 | 0.78 µM |
